Experimental data published in patent publication US9920010B2, “CXCR7 receptor modulators” (IDORSIA PHARMACEUTICALS LTD, priority 2013, dated 2018).

Target: T1, CXCR7 (Homo sapiens, UniProt P25106)
T1 construct: host or cells: CHO-K1 (PathHunter CHO-K1 CXCR7 b-arrestin cell line, stably transfected)
Assay: PathHunter CHO-K1 CXCR7 b-arrestin recruitment assay (CXCR7 agonistic activity)
Format: cell-based
Conditions: PathHunter CHO-K1 CXCR7 b-arrestin cell line
Method in brief: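 Stable CHO-K1 line with C-terminally ProLink-tagged CXCR7 and β-arrestin 2–EA fusion; β-arrestin recruitment restores β-gal activity, read by chemiluminescence after 1 h RT detection. Cells seeded 24 h, starved in OPTIMEM 3–4 h, exposed to compounds 90 min at 37 °C in HBSS/HEPES/BSA. Geometric-mean EC50 from repeated measurements.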

T1 sequence (P25106 whole entry): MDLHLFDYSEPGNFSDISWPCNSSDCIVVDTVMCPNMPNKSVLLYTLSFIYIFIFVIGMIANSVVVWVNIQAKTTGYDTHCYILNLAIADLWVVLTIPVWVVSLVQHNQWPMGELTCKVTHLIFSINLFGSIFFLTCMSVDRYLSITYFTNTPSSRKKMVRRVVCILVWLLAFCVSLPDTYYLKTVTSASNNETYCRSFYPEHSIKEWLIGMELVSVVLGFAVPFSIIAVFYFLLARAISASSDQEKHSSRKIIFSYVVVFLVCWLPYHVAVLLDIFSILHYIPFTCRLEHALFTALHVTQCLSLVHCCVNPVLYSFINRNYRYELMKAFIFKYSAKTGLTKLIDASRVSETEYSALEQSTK
T1 sequence (P32121 whole entry partner): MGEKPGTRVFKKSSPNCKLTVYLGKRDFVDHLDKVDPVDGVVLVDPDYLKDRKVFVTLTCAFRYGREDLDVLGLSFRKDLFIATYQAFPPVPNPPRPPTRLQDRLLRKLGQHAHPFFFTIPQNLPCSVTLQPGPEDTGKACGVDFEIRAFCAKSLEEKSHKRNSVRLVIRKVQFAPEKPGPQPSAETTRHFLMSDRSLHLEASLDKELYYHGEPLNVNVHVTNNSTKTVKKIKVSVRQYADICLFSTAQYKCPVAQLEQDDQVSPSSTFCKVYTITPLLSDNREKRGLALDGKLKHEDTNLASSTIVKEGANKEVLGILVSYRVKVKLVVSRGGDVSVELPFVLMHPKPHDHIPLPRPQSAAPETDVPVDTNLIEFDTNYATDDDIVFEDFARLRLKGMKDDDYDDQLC

EC50	SMILES
106 nM	CNCCN(Cc1ncccc1C(F)(F)F)C(=O)CNc1cccc2c1CCN(C(=O)OCCOC)C2 [compound 427]
15 nM	O=C(CNc1cccc2c1CCN(CC1CC1)C2)N(CCN1CCNCC1)Cc1ccccc1C(F)(F)F [compound 438, 2-(2-Cyclopropylmethyl-1,2,3,4-tetrahydro-isoquinolin-5-ylamino)-N-(2-piperazin-1-yl-ethyl)-N-(2-trifluoromethyl-benzyl)-acetamide]
4 nM	O=C(CNc1cccc2c1CN(CC1CC1)CC2)N(CCN1CCCC1)Cc1ccccc1C(F)(F)F [compound 565, 2-(2-Cyclopropylmethyl-1,2,3,4-tetrahydro-isoquinolin-8-ylamino)-N-(2-pyrrolidin-1-yl-ethyl)-N-(2-trifluoromethyl-benzyl)-acetamide]
1 nM	CN(CCN(Cc1ccccc1C(F)(F)F)C(=O)CNc1cccc2c1CCN(CC1CC1)C2)C1CCCC1 [compound 451, N-[2-(Cyclopentyl-methyl-amino)-ethyl]-2-(2-cyclopropylmethyl-1,2,3,4-tetrahydro-isoquinolin-5-ylamino)-N-(2-trifluoromethyl-benzyl)-acetamide]
155 nM	CCN1CCc2cccc(NCC(=O)N(CCc3ccccc3C(F)(F)F)CCN(C)C)c2C1 [compound 538]
257 nM	CCCCNC(=O)N1CCc2c(cccc2NCC(=O)N(CCNC)Cc2ccccc2C(F)(F)F)C1 [compound 405]
27 nM	CNCCN(Cc1ncccc1C(F)(F)F)C(=O)CNc1cccc2c1CCN(C(=O)OCCF)C2 [compound 425, 5-({[(2-Methylamino-ethyl)-(3-trifluoromethyl-pyridin-2-ylmethyl)-carbamoyl]-methyl}-amino)-3,4-dihydro-1H-isoquinoline-2-carboxylic acid 2-fluoro-ethyl ester]
133 nM	CCN1CCc2cccc(OC(C)C(=O)N(CCN(C)C)Cc3ccccc3C(F)(F)F)c2C1 (centres unmarked) [compound 548]
1 nM	CC(C)N(C)CCN(Cc1ccccc1C(F)(F)F)C(=O)CNc1cccc2c1CCN(CC1CC1)C2 [compound 449, 2-(2-Cyclopropylmethyl-1,2,3,4-tetrahydro-isoquinolin-5-ylamino)-N-[2-(isopropyl-methyl-amino)-ethyl]-N-(2-trifluoromethyl-benzyl)-acetamide]
14 nM	C=CCN(C)CCN(Cc1ccccc1C(F)(F)F)C(=O)CCc1cccc2c1CN(CC=C)CC2 [compound 467, N-[2-(Allyl-methyl-amino)-ethyl]-3-(2-allyl-1,2,3,4-tetrahydro-isoquinolin-8-yl)-N-(2-trifluoromethyl-benzyl)-propionamide]
100 nM	CN(C)CCN(Cc1ccccc1C(F)(F)F)C(=O)CNc1cccc2c1CN(C(N)=O)CC2 [compound 562]

Second part, the compound before the results:

SMILES	EC50
COCCN1CCc2c(/C=C/C(=O)N(Cc3ncccc3Cl)CC(C)(C)O)cccc2C1 [Example 328, (E)-N-(3-Chloro-pyridin-2-ylmethyl)-N-(2-hydroxy-2-methyl-propyl)-3-[2-(2-methoxy-ethyl)-1,2,3,4-tetrahydro-isoquinolin-5-yl]-acrylamide]	293 nM
CC(Oc1cccc2c1CCN(CC1CC1)C2)C(=O)N(CCN(C)C)Cc1ccccc1C(F)(F)F (racemic) [Example 350, rac-2-(2-Cyclopropylmethyl-1,2,3,4-tetrahydro-isoquinolin-5-yloxy)-N-(2-dimethylamino-ethyl)-N-(2-trifluoromethyl-benzyl)-propionamide]	32 nM
COCCN1CCc2c(/C=C/C(=O)N(CCN(C)C)Cc3ncccc3Cl)cccc2C1 [Example 327, (E)-N-(3-Chloro-pyridin-2-ylmethyl)-N-(2-dimethylamino-ethyl)-3-[2-(2-methoxy-ethyl)-1,2,3,4-tetrahydro-isoquinolin-5-yl]-acrylamide]	20 nM
CN1CCC(N(Cc2ccccc2C(F)(F)F)C(=O)CNc2cccc3c2CCN(C(=O)OC(C)(C)C)C3)CC1 [Example 10, 5-({[(1-Methyl-piperidin-4-yl)-(2-trifluoromethyl-benzyl)-carbamoyl]-methyl}-amino)-3,4-dihydro-1H-isoquinoline-2-carboxylic acid tert-butyl ester]	337 nM
CN(C)CCN(Cc1cnc(N(C)C)nc1)C(=O)CNc1cccc2c1CCN(CC1CC1)C2 [Example 272, 2-(2-Cyclopropylmethyl-1,2,3,4-tetrahydro-isoquinolin-5-ylamino)-N-(2-dimethylamino-ethyl)-N-(2-dimethylamino-pyrimidin-5-ylmethyl)-acetamide]	230 nM
O=C1CCCN1CCN(Cc1ccccc1C(F)(F)F)C(=O)CNc1cccc2c1CCN(CC1CC1)C2 [Example 63, 2-(2-Cyclopropylmethyl-1,2,3,4-tetrahydro-isoquinolin-5-ylamino)-N-[2-(2-oxo-pyrrolidin-1-yl)-ethyl]-N-(2-trifluoromethyl-benzyl)-acetamide]	19 nM
CN(C)CCN(Cc1ccccc1)C(=O)COc1cccc2c1CN(C(=O)c1ccccc1)CC2 [Example 207, 2-(2-Benzoyl-1,2,3,4-tetrahydro-isoquinolin-8-yloxy)-N-benzyl-N-(2-dimethylamino-ethyl)-acetamide]	5 nM
CCN(Cc1ccccc1Cl)C(=O)/C=C/c1cccc2c1CCN(C(=O)OC(C)(C)C)C2 [Example 92, 5-{(E)-2-[(2-Chloro-benzyl)-ethyl-carbamoyl]-vinyl}-3,4-dihydro-1H-isoquinoline-2-carboxylic acid tert-butyl ester]	413 nM
O=C(CNc1cccc2c1CCN(CC1CC1)C2)N(CCN1CCNC1=O)Cc1ccccc1C(F)(F)F [Example 79, 2-(2-Cyclopropylmethyl-1,2,3,4-tetrahydro-isoquinolin-5-ylamino)-N-[2-(2-oxo-imidazolidin-1-yl)-ethyl]-N-(2-trifluoromethyl-benzyl)-acetamide]	135 nM
COCCN1CCc2c(cccc2NCC(=O)N(CCN(C)C)Cc2ncccc2Cl)C1 [Example 306, N-(3-Chloro-pyridin-2-ylmethyl)-N-(2-dimethylamino-ethyl)-2-[2-(2-methoxy-ethyl)-1,2,3,4-tetrahydro-isoquinolin-5-ylamino]-acetamide]	39 nM
CC(C)C(=O)N1CCc2c(cccc2NCC(=O)N(CCN(C)C)Cc2ccccc2)C1 [compound 115]	54 nM
CN(C)CCN(Cc1ccccc1Cl)C(=O)CCc1cccc2c1CCN(C(=O)OC(C)(C)C)C2 [Example 98, 5-{2-[(2-Chloro-benzyl)-(2-dimethylamino-ethyl)-carbamoyl]-ethyl}-3,4-dihydro-1H-isoquinoline-2-carboxylic acid tert-butyl ester]	224 nM
CN(C)CCN(Cc1c(F)cccc1F)C(=O)CNc1cccc2c1CCN(CC1CC1)C2 [Example 270, 2-(2-Cyclopropylmethyl-1,2,3,4-tetrahydro-isoquinolin-5-ylamino)-N-(2,6-difluoro-benzyl)-N-(2-dimethylamino-ethyl)-acetamide]	7 nM
O=C(CNc1cccc2c1CCN(C(=O)[C@@H]1C[C@@H]1F)C2)N(Cc1ccccc1C(F)(F)F)CC1(O)CCCC1 (racemic) [Example 372, rac-2-[2-((1S*,2S*)-2-Fluoro-cyclopropanecarbonyl)-1,2,3,4-tetrahydro-isoquinolin-5-ylamino]-N-(1-hydroxy-cyclopentylmethyl)-N-(2-trifluoromethyl-benzyl)-acetamide]	271 nM
CN(C)CCN(Cc1ccccc1)C(=O)CNc1cccc2c1CCN(CCC(C)(C)C)C2 [compound 120]	154 nM
COCCN1CCc2c(cccc2NCC(=O)N(CCC(C)(C)O)Cc2ccccc2C(F)(F)F)C1 [Example 304, N-(3-Hydroxy-3-methyl-butyl)-2-[2-(2-methoxy-ethyl)-1,2,3,4-tetrahydro-isoquinolin-5-ylamino]-N-(2-trifluoromethyl-benzyl)-acetamide]	311 nM
CC(C)CN1CCc2cccc(NCC(=O)N(CCN(C)C)Cc3ccccc3)c2C1 [compound 189, N-Benzyl-N-(2-dimethylamino-ethyl)-2-(2-isobutyl-1,2,3,4-tetrahydro-isoquinolin-8-ylamino)-acetamide]	37 nM
Cc1csc(CN(Cc2ccccc2C(F)(F)F)C(=O)CNc2cccc3c2CCN(CC2CC2)C3)n1 [Example 77, 2-(2-Cyclopropylmethyl-1,2,3,4-tetrahydro-isoquinolin-5-ylamino)-N-(4-methyl-thiazol-2-ylmethyl)-N-(2-trifluoromethyl-benzyl)-acetamide]	46 nM
CN(C)CCN(Cc1ccccc1C(F)(F)F)C(=O)CNc1cccc2c1CCN(C(=O)c1ccco1)C2 [Example 572, N-(2-Dimethylamino-ethyl)-2-[2-(furan-2-carbonyl)-1,2,3,4-tetrahydro-isoquinolin-5-ylamino]-N-(2-trifluoromethyl-benzyl)-acetamide]	5 nM
CN(C)CCN(Cc1cccc(C(F)(F)F)n1)C(=O)CNc1cccc2c1CCN(CC1CC1)C2 [Example 46, 2-(2-Cyclopropylmethyl-1,2,3,4-tetrahydro-isoquinolin-5-ylamino)-N-(2-dimethylamino-ethyl)-N-(6-trifluoromethyl-pyridin-2-ylmethyl)-acetamide]	3 nM
CCC(C)N1CCc2c(cccc2NCC(=O)N(CCN(C)C)Cc2ccccc2C(F)(F)F)C1 (racemic) [Example 356, rac-2-(2-sec-Butyl-1,2,3,4-tetrahydro-isoquinolin-5-ylamino)-N-(2-dimethylamino-ethyl)-N-(2-trifluoromethyl-benzyl)-acetamide]	6 nM
CCOC(=O)CN1CCc2c(cccc2NCC(=O)N(CCN(C)C)Cc2ncccc2C(F)(F)F)C1 [Example 369, [5-({[(2-Dimethylamino-ethyl)-(3-trifluoromethyl-pyridin-2-ylmethyl)-carbamoyl]-methyl}-amino)-3,4-dihydro-1H-isoquinolin-2-yl]-acetic acid ethyl ester]	92 nM
CCCOC(=O)N1CCc2c(cccc2NCC(=O)N(CCNC)Cc2ccccc2C(F)(F)F)C1 [compound 398]	82 nM
CN(C)CCN(Cc1ccccc1)C(=O)CNc1cccc2c1CCN(CCc1ccccc1)C2 [compound 126]	249 nM
